This assay concerns the target T1, JAK3 (Homo sapiens, UniProt P52333).
T1 construct: purchased Carna Biosciences
Kind of assay: Kinase panel (Carna). It counts as biochemical.

T1 sequence (P52333 whole entry): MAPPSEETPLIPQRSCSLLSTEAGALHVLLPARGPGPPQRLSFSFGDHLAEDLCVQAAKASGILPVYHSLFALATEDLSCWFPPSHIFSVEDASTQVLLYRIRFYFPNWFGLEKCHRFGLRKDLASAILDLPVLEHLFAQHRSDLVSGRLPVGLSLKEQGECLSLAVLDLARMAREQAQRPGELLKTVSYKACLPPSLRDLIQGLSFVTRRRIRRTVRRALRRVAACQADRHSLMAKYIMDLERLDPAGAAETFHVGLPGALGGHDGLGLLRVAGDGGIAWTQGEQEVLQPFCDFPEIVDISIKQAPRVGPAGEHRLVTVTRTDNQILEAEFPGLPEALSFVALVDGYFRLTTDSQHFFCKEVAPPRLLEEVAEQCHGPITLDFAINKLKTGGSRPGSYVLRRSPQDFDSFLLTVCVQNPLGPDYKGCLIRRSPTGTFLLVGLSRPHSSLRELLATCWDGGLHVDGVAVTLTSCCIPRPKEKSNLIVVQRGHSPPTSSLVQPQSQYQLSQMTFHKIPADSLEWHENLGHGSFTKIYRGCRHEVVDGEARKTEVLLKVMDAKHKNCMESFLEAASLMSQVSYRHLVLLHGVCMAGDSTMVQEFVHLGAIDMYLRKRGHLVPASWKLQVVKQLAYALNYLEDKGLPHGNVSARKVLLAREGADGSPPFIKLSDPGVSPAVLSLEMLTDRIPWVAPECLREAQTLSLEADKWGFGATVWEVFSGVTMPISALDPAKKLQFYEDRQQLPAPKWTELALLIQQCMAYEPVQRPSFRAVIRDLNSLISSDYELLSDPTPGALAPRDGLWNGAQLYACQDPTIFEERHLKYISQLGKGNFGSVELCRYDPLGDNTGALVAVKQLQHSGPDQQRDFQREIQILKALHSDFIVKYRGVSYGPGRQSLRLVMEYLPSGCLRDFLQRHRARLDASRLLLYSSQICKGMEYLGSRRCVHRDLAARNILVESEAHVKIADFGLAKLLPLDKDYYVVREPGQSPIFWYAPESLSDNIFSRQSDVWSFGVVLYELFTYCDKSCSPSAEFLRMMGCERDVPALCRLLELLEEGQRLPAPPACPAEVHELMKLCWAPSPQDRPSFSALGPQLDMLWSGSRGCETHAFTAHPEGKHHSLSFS
Source text: Detailed information on the assay conditions is available on the website of Carna Biosciences (http://www.carnabio.com).

Broadly, the inhibition is the share of the control response that was lost under treatment. Lower therefore signals a weak effect. With `COc1ccc(/C=C2\SC(=S)NC2=O)cc1C#C[Si](C)(C)C` [FINDY], at 10 µM the inhibition was 8.2%.

For the origin of these results see publication PMC4844702, “Selective inhibition of the kinase DYRK1A by targeting its folding process” (Nature Communications, 2016).
